Legend:
[1] = tested on: LDL; experiment: Protection against LDL oxidation by copper (conjugated diene formation); format: biochemical; settings: for antioxidant properties on LDL oxidation by copper (in words): FIGS. 1-1 to 1-14; for lag phase of conjugated diene formation / rate of conjugated diene formation: 10^−4M
Experimental: LDL oxidation is an important alteration and plays a predominant role in the establishment and development of atherosclerosis (Jurgens G et al., 1987). […] Unless otherwise indicated, the reagents were from Sigma (St Quentin, France). LDL were prepared according to the method described by (Havel R J et al., 1955). The solutions of test compounds were prepared at 10^−2 M concentration in bicarbonate buffer (pH 9) and diluted in PBS to obtain final concentrations ranging from 0.1 to 100 μM for a total ethanol concentration of […]. Prior to oxidation, EDTA was removed from the LDL preparation by dialysis. Oxidation then took place at 30° C. by addition of 100 μl of 16.6 μM CuSO4 solution to 160 μL of LDL (125 μg protein/ml) and 20 μl of a test compound solution. The formation of dienes, the species under observation, was followed by measuring optical density at 234 nm in the samples treated with the compounds but in the presence or absence of copper. Optical density at 234 nm was measured every 10 minutes for 8 hours in a thermostated spectrophotometer (Tecan Ultra 380). The compounds were considered to have antioxidant activity when they induced a longer lag phase and reduced the rate of oxidation and the amount of dienes formed in comparison with the control sample.

[2] = target: T1, human PPARα (Homo sapiens, UniProt Q07869); experiment: PPARα/Gal4 transactivation system; format: cell-based; settings: for maximum induction factor: at the 10 or 1 μm concentrations
T1 construct: expressed in transfected cells; host or cells: RK13 or COS-7
T1 sequence (Q07869 239-466 limits assumed): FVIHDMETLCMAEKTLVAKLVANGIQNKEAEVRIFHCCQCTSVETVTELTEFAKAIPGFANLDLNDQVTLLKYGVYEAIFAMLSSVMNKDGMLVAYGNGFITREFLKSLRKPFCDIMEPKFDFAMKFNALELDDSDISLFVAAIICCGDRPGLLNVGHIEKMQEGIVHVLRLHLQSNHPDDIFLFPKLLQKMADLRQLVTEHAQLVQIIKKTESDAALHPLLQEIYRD
Experimental: PPAR activation was tested in vitro in RK13 or COS-7 fibroblast cell lines by measuring the transcriptional activity of chimeras composed of the DNA binding domain of the yeast Gal4 transcription factor and the ligand binding domain of the different PPARs. These latter results were then confirmed in cell lines according to the following protocols.
Culture protocols: RK13 were from ECACC (Porton Down, UK) and were grown in DMEM medium supplemented with 10% (V/V) fetal calf serum, 100 U/ml penicillin (Gibco, Paisley, UK) and 2 mM L-glutamine (Gibco, Paisley, UK). COS-7 cells were from ATCC and were grown in DMEM medium supplemented with 10% (V/V) fetal calf serum, 1% penicillin/streptomycine (Biochrom, AG), 1% of amino acids (Gibco) and 1% sodium pyruvate (Gibco).
The culture medium was changed every two days. Cells were kept at 37° C. in a humidified 95% air/5% CO2 atmosphere.
Description of plasmids used for transfection: The plasmids Gal4(RE)_TkpGL3, pGal4-hPPARα, pGal4-hPPARγ, pGal4-hPPARδ and pGal4-φ have been described in the literature (Raspe E et al., 1999). The pGal4-hPPARα, pGal4-hPPARγ and pGal4-hPPARδ constructs were obtained by cloning into the pGal4-φ vector PCR-amplified DNA fragments corresponding to the DEF domains of the human PPARs nuclear receptors.
Transfection of RK13: RK13 cells were seeded in 24-well culture dishes at 5×10^4 cells/well and transfected for 2 hours with the reporter plasmid Gal4(RE)_TkpGL3 (50 ng/well), the expression vectors pGal4-φ, pGal4-hPPARα, pGal4-hPPARγ and pGal-hPPARδ (100 ng/well) and the transfection efficiency control vector pRL-CMV (1 ng/well) according to the previously described protocol (Raspe E, Madsen L, Lefebvre A M, Leitersdorf I, Gelman L, Peinado-Onsurbe J, Dallongeville J, Fruchart J C, Berge R and Staels B, 1999), then incubated for 36 hours with the test compounds. RK13 cells were incubated with the different compounds at concentrations of 10, 30 and 100 μM or 1, 10 and 100 μM for 24 hours. At the end of the experiment, the cells were lysed (Gibco, Paisley, UK) and luciferase activity was determined with a Dual-Luciferase™ Reporter Assay System kit (Promega, Madison, Wis., USA) according to the supplier's instructions. The protein content of the cell extracts was then measured with the Bio-Rad Protein Assay (Bio-Rad, Munich, Germany) as directed by the supplier.
Transfection of COS7: Cells in suspension are transfected, in the presence of 10% (V/V) fetal calf serum, with 150 ng of DNA per well with a pGal4-PPAR/Gal4(RE)_TkpGL3 ratio of 1/10. Cells are then seeded in 96 well plates (4×10^4 cells/well) and incubated for 24 hours at 37° C. Activation with compounds is performed on 24 hours at 37° C. in culture medium without serum. At the end of the activation period, cells are lysed and luciferase activity is determined, using the Steady Glow Luciferase Kit (Promega), according to the supplier's instructions.

[3] = tested on: hApoE2 Knock-in transgenic mice; experiment: Effects on triglycerides and cholesterol metabolism in vivo; design: species or system mouse
Experimental: Treatment of animals: hApoE2 knock-in transgenic mice were kept on a 12-hour light/dark cycle at a constant temperature of 20±3° C. After a 1 week acclimation, mice were separated in groups of 6 animals selected such that the distribution of their body weight and plasmatic lipid levels determined before the experiment were uniform. The test compounds were suspended in carboxymethylcellulose and administered by intragastric gavage at the indicated doses, once a day for 7 or 8 days. Animals had access to food and water ad libitum. At the end of the experiment the animals were weighed and sacrificed under anesthesia. Blood was collected on EDTA. Plasma was prepared by centrifugation at 3000 rpm for 20 minutes. Organs were harvested, frozen in liquid nitrogen and stored at −80° C. for subsequent analysis.
Measurement of serum lipids: Serum lipid concentrations (total cholesterol and triglycerides) were determined by a colorimetric assay (Boehringer, Mannheim, Germany) according to the supplier's instructions.

[4] = tested on: Human normal primary fibroblasts; experiment: Antioxidant properties on cell cultures (carboxy-H2DCFDA fluorescence, AAPH stress), fibroblasts; format: cell-based; settings: compounds at 25 μM for 24 h, AAPH 750 μM
Experimental: (§1) The reduction in the intensity of the emitted fluorescence signal was determined in cells treated with the compounds in the following manner.
(§2) Prior to stress the cells with an oxidative agent such as AAPH (CAS number 2997-92-4), cells are incubated with compounds of interest at 25 μM for 24 h. Then the culture medium is discarded and cells are rinsed two times with PBS. Cells are then incubated 30 min at 37° C. with a cell-permeant indicator for reactive oxygen species that is nonfluorescent until the acetate groups are removed by intracellular esterases and oxidation occurs within the cell 5-(and-6)-carboxy-2′,7′-dichlorodihydrofluorescein diacetate (carboxy-H2DCFDA). The probes are prepared in PBS and incubated at the final concentration of 25 μM. After the incubation with the probe, cells are rinsed and incubated another 30 min with the oxidative solution containing AAPH at 750 μM in culture medium without phenol red and serum.
(§3) The fluorescence is then measured with a fluorimeter with the following wavelength, […].
(§4) Two different cell types have been tested with the inventive compounds. Human normal primary fibroblasts and HaCat cells which are a human keratinocyte cell line.

[5] = tested on: HaCat cells; experiment: Antioxidant properties on cell cultures (carboxy-H2DCFDA fluorescence, AAPH stress), keratinocytes; format: cell-based, human; settings: compounds at 25 μM for 24 h, AAPH 750 μM
Experimental: as §1, §2, §3, §4

[6] = FIG. 1-12, copper alone 120 minutes
[7] = FIG. 1-9, copper alone 80 minutes

COc1cc(/C=C/C(=O)c2ccc(Cl)cc2O)cc(OC)c1OC(C)(C)C(=O)O [Compound 6, 1-[2-hydroxy-4-chlorophenyl]-3-[3,5-dimethoxy-4-carboxydimethylmethyloxyphenyl]prop-2-en-1-one]
antioxidant properties on LDL oxidation by copper (in words) [1]: antioxidant properties

CCCCCCCc1ccc(C(=O)/C=C/c2cc(C)c(OC(C)(C)C(=O)OC(C)(C)C)c(C)c2)cc1 [Compound 38, 1-[4-heptylphenyl]-3-[3,5-dimethyl-4-tertbutyloxycarbonyldimethylmethyloxyphenyl]prop-2-en-1-one]
maximum induction factor [2]: 22 | lag phase of conjugated diene formation [1, 6]: 284 min | rate of conjugated diene formation ([1]; FIG. 1-13, copper alone 1.8): 0.71 nmol/min/mg of LDL | maximum amount of conjugated dienes formed ([1]; FIG. 1-14, copper alone 372): 244 nmol per mg of LDL

COc1cc(Cl)ccc1C(=O)/C=C/c1cc(C)c(OC(C)(C)C(=O)O)c(C)c1 [Compound 37, 1-[2-methyloxy-4-chlorophenyl]-3-[3,5-dimethyl-4-carboxydimethylmethyloxyphenyl]prop-2-en-1-one]
maximum induction factor [2]: 27 | lag phase of conjugated diene formation [1, 6]: 196 min | rate of conjugated diene formation ([1]; FIG. 1-13, copper alone 1.8): 1.49 nmol/min/mg of LDL | maximum amount of conjugated dienes formed ([1]; FIG. 1-14, copper alone 372): 338 nmol per mg of LDL

Cc1cc(/C=C/C(=O)c2ccc(Br)cc2O)cc(C)c1OC(C)(C)C(=O)O [Compound 25, 1-[2-hydroxy-4-bromophenyl]-3-[3,5-dimethyl-4-carboxydimethylmethyloxyphenyl]prop-2-en-1-one]
lag phase of conjugated diene formation ([1]; FIG. 1-7, copper alone 82 minutes): 120 min | maximum amount of conjugated dienes formed ([1]; FIG. 1-8, copper alone 393): 378 nmol per mg of LDL

Cc1cc(/C=C/C(=O)c2ccc(Cl)cc2O)cc(C)c1OC(C)(C)C(=O)O [Compound 7, 1-[2-hydroxy-4-chlorophenyl]-3-[3,5-dimethyl-4-carboxydimethylmethyloxyphenyl]prop-2-en-1-one]
induction factor (luminescent signal relative to untreated cells) ([2]; 30 μM): 50 | antioxidant properties on LDL oxidation by copper (in words) [1]: antioxidant properties | cholesterol in lipoparticle subfraction (exclusion chromatography) ([3]; gavage 200 mg/kg for 7 days): decreased | plasma concentration of cholesterol ([3]; gavage 200 mg/kg for 7 days): decrease | plasma concentration of triglycerides ([3]; gavage 200 mg/kg for 7 days): decrease | triglycerides in lipoparticle subfraction (exclusion chromatography) ([3]; gavage 200 mg/kg for 7 days): decreased

COc1ccccc1C(=O)/C=C/c1cc(C)c(OC(C)(C)C(=O)O)c(C)c1 [Compound 31, 1-[2-methoxyphenyl]-3-[3,5-dimethyl-4-carboxydimethylmethyloxyphenyl]prop-2-en-1-one]
induction factor (luminescent signal relative to untreated cells) ([2]; 10 μM): 15.5 | lag phase of conjugated diene formation [1, 7]: 139 min | rate of conjugated diene formation ([1]; FIG. 1-10, copper alone 1.9): 1.6 nmol/min/mg of LDL

Cc1cc(-c2cc(=O)c3ccc(Cl)cc3o2)cc(C)c1OC(C)(C)C(=O)O [Compound 35, 2-(3,5-dimethyl-4-carboxydimethylmethyloxyphenyl)-7-chloro-4H-1-benzopyran-4-one]
lag phase of conjugated diene formation [1, 7]: 149 min | rate of conjugated diene formation ([1]; FIG. 1-10, copper alone 1.9): 1.5 nmol/min/mg of LDL

Cc1c(C)c2c(c(C)c1O)CCC(C)(C(=O)O)O2 (stereo not shown) [Trolox, reference compound]
% of oxidative reduction versus control cells [4]: 60% | % of oxidative reduction versus control cells [5]: 46%

COc1cc(/C=C/C(=O)c2ccccc2O)cc(OC)c1OC(C)(C)C(=O)O [Compound 5, 1-[2-hydroxyphenyl]-3-[3,5-dimethoxy-4-carboxydimethylmethyloxyphenyl]prop-2-en-1-one]
antioxidant properties on LDL oxidation by copper (in words) [1]: antioxidant properties

CCCCCCOc1ccccc1C(=O)/C=C/c1cc(C)c(OC(C)(C)C(=O)O)c(C)c1 [Compound 82, 1-[2-hexyloxyphenyl]-3-[3,5-dimethyl-4-carboxydimethylmethyloxyphenyl]prop-2-en-1-one]
plasma cholesterol ([3]; 50 mg/kg/day for 7 or 8 days, FIGS. 4-13, 4-15, 4-17, 4-19): decrease | plasma triglycerides ([3]; 50 mg/kg/day for 7 or 8 days, FIGS. 4-14, 4-16, 4-18, 4-20): decrease

Cc1cc(/C=C/C(=O)c2ccccc2O)cc(C)c1OC(C)(C)C(=O)O [Compound 11, 1-[2-hydroxyphenyl]-3-[3,5-dimethyl-4-carboxydimethylmethyloxyphenyl]prop-2-en-1-one]
induction factor (luminescent signal relative to untreated cells) ([2]; 100 μM): 10

— US7566737B2 (Genfit, priority 2002, dated 2009)
